Measured values from patent US20150105377A1, “Methods and Compositions for RAF Kinase Mediated Diseases” (ARIAD Pharmaceuticals, Inc., priority 2012, published 2015).

What was measured:
[1] = biological target: T1, C-RAF (Homo sapiens, UniProt P04049); assay: Kinase inhibition assay (Reaction Biology Corporation); type: biochemical; settings: 10 μM ATP, 10-point curve
T1 construct: purchased Reaction Biology Corporation (Malvern, Pa.), contract assay service

[2] = test system: A375 BRAF V600E melanoma cell line; assay: Cell growth assay; type: cell-based; settings: Homo sapiens, A-375, read-out: Ponatinib GI50 (nM), 72 hours
Experimental: (§1) Cell growth was assessed using the Cell Titer 96 Aqueous One Solution Cell Proliferation Assay (Promega) and absorbance was measured using a Wallac Victor microplate reader (PerkinElmer). To differentiate between a cytostatic and cytotoxic drug effect, the concentration that causes 50% growth inhibition (GI50) was determined by correcting for the cell count at time zero (time of treatment) and plotting data as percent growth relative to vehicle-treated cells using XLfit version 5.2.0 for Microsoft Excel. Data are shown as mean from 3 independent experiments performed in triplicate.

[3] = test system: HT-29 BRAF V600E colorectal cancer cell line; assay: Cell growth assay; type: cell-based; settings: Homo sapiens, read-out: Ponatinib GI50 (nM), HT-29, Colorectal, 72 hours
Experimental: as §1

[4] = test system: SH-4 BRAF V600E melanoma cell line; assay: Cell growth assay; type: cell-based; settings: Homo sapiens, read-out: Ponatinib GI50 (nM), SH-4, Melanoma, 72 hours
Experimental: as §1

[5] = test system: SK-MEL-24 BRAF V600E melanoma cell line; assay: Cell growth assay; type: cell-based; settings: Homo sapiens, read-out: Ponatinib GI50 (nM), SK-MEL-24, Melanoma, 72 hours
Experimental: as §1

[6] = test system: C32 BRAF V600E het melanoma cell line; assay: Cell growth assay (automated cell line screening, Ricerca Biosciences); type: cell-based; settings: Homo sapiens, read-out: Ponatinib GI50 (nM), tested by Ricerca Biosciences
Experimental: as §1
(§2) Cell growth assays were also performed as part of an automated cell line screening assay (Ricerca Biosciences, LLC, Bothell, Wash., USA). Experimental procedures are similar to those described above.

[7] = test system: CHL-1 BRAF wt melanoma cell line; assay: as above; type: cell-based; settings: Homo sapiens, read-out: Ponatinib GI50 (nM), CHL-1, Melanoma, tested by Ricerca Biosciences
Experimental: as §1, §2

[8] = test system: MEK or ERK1/2 phosphorylation in A375 BRAF V600E mutant melanoma cancer cells; assay: Immunoblot analysis of BRAF signaling; type: cell-based; settings: FIG. 1B
Experimental: (§3) Cells were lysed in SDS lysis buffer (0.06 M Tris-HCL. 1% SDS and 10% glycerol) and protein concentration was determined using a BCA Protein assay (Thermo Scientific). Cellular lysates ([…]) were resolved by electrophoresis and transferred to nitrocellulose membranes using NuPage Novex reagents (Invitrogen). Membranes were immunoblotted with the indicated antibodies (Cell Signaling Technology) and then exposed to Supersignal ELISA femto maximum sensitivity substrate (Thermo Scientific) to generate a chemiluminescent signal.

[9] = test system: MEK or ERK1/2 phosphorylation in HT-29 BRAF V600E mutant colorectal cancer cells; assay: Immunoblot analysis of BRAF signaling; type: cell-based; settings: HT-29 cells, FIG. 4B
Experimental: as §3

[10] = test system: MEK or ERK1/2 phosphorylation in SH-4 BRAF V600E mutant melanoma cancer cells; assay: Immunoblot analysis of BRAF signaling; type: cell-based; settings: SH-4 cells, FIG. 2B
Experimental: as §3

T1 sequence (P04049 whole entry): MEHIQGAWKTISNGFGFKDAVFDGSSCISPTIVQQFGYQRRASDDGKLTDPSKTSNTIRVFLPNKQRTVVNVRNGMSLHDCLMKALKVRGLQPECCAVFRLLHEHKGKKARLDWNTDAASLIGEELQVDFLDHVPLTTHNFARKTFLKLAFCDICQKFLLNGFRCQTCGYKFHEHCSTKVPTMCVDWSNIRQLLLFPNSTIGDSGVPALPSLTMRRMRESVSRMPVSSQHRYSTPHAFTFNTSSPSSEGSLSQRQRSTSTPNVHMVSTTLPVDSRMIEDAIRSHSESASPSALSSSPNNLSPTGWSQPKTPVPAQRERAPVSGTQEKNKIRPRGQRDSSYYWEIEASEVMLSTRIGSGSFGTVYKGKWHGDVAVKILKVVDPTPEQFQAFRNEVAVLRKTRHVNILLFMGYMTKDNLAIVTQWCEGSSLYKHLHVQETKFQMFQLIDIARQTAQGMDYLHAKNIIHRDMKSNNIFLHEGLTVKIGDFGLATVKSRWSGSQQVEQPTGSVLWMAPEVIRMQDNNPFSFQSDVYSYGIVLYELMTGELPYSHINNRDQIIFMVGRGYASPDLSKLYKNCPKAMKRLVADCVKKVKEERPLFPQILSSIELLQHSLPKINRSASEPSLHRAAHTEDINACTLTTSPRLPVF

Structure (SMILES)	IC50 ([1]; Table 2) [nM]	also measured
Cc1ccc(C(=O)Nc2ccc(CN3CCN(C)CC3)c(C(F)(F)F)c2)cc1C#Cc1cnc2cnccn12 [Example 2, 3-(Imidazo[1,2-a]pyrazin-3-ylethynyl)-4-methyl-N-(4-((4-methylpiperazin-1-yl)methyl)-3-(trifluoromethyl)phenyl)benzamide]		IC50 ([1]; Table 1): 2.13 nM
Cc1ccc(C(=O)Nc2cc(-c3cncnc3)cc(C(F)(F)F)c2)cc1C#Cc1cnc2cccnn12	8.5	
Cc1ccc(C(=O)Nc2cc(-n3ccnc3)cc(C(F)(F)F)c2)cc1C#Cc1cnc2c(N)cccn12	51.1	
CC(=O)Nc1cccn2c(C#Cc3cc(C(=O)Nc4cc(C(F)(F)F)ccn4)ccc3C)cnc12 [Example 10, 3-((8-Acetamidoimidazo[1,2-a]pyridin-3-yl)ethynyl)-4-methyl-N-(4-(trifluoromethyl)pyridin-2-yl)benzamide]		IC50 ([1]; Table 1): 2.42 nM
CN1CCN(Cc2ccc(NC(=O)c3ccc(F)c(C#Cc4cnc5ccccn45)c3)cc2C(F)(F)F)CC1	51.7	
Cc1ccc(NC(=O)c2ccc3ccn(C)c3c2)cc1C#Cc1cnc2cccnn12	3.12	
Cc1ccc(NC(=O)c2ccc(CN3CCN(C)CC3)c(C(F)(F)F)c2)cc1C#Cc1cnc2cccnn12 [Example 15, N-(3-(Imidazo[1,2-b]pyridazin-3-ylethynyl)-4-methylphenyl)-4-((4-methylpiperazin-1-yl)methyl)-3-(trifluoromethyl)benzamide]		IC50 ([1]; Table 1): 12.2 nM
CNC(=O)CNc1ccc(NC(=O)c2ccc(C)c(C#Cc3cnc4ccccn34)c2)cc1C(F)(F)F	29.5	
Cc1ccc(C(=O)Nc2cc(C(C)(C)C)on2)cc1C#Cc1cnc2cccnn12	4.27	
Cc1ccc(C(=O)Nc2cc(C(F)(F)F)ccn2)cc1C#Cc1cnc2c(N)cccn12	4.78	
Cc1cnc(NC(=O)c2ccc(C)c(C#Cc3cnc4c(NC(N)=O)cccn34)c2)s1	2.49	
CC(C)N1CCN(Cc2ccc(NC(=O)c3cncc(C#Cc4cnc5cnccn45)c3)cc2C(F)(F)F)CC1	14.4	
Cc1ccc(C(=O)Nc2cc(-n3cnc(C#N)c3)cc(C(F)(F)F)c2)cc1C#Cc1cnc2ccccn12	998	
CN1CCN(Cc2ccc(NC(=O)c3cccc(C#Cc4cnc5ccccn45)c3)cc2C(F)(F)F)CC1	26.7	
O=C(Nc1cccc(C(F)(F)F)c1)c1cncc(C#Cc2cnc3cccnn23)c1	2.07	
Cc1ccc(C(=O)Nc2cc(-n3ccnc3CN(C)C)cc(C(F)(F)F)c2)cc1C#Cc1cnc2cnccn12	9.22	
Cc1ccc(C(=O)Nc2cc(-n3ccnc3)cc(C(F)(F)F)c2)cc1C#Cc1cnc2c(NC(N)=O)cccn12	12.7	
Cc1ccc(C(=O)Nc2ccc(Cl)cc2)cc1C#Cc1cnc2cccnn12	10.7	
Cc1ccc(C(=O)Nc2cc(-n3cnc(CN4CCCC4)c3)cc(C(F)(F)F)c2)cc1C#Cc1cnc2cccnn12	9.19	
Cc1ccc(C(=O)Nc2cc(N3CCOCC3)cc(C(F)(F)F)c2)cc1C#Cc1cnc2cccnn12	17.2	

Structure (SMILES)	IC50 ([1]; Table 2) [nM]	also measured
Cc1ccc(C(=O)Nc2ccc(CN3CCN(C)CC3)c(C(F)(F)F)c2)cc1C#Cc1cnc2ccccn12 [Example 8, 3-(Imidazo[1,2-a]pyridin-3-ylethynyl)-4-methyl-N-(4-((4-methylpiperazin-1-yl)methyl)-3-(trifluoromethyl)phenyl)benzamide]		IC50 ([1]; Table 1): 26 nM
Cc1ccc(C(=O)Nc2ccc(C#N)c(C(F)(F)F)c2)cc1C#Cc1cnc2ccccn12	57.3	
CC(=O)Nc1cccn2c(C#Cc3cc(C(=O)Nc4cccc(C(F)(F)F)c4)ccc3C)cnc12	7.3	
Cc1ccc(C(=O)Nc2cccc(C(F)(F)F)c2)cc1C#Cc1cnc2cccnn12	1.45	
Cc1ccc(F)c(NC(=O)c2ccc(C)c(C#Cc3cnc4cccnn34)c2)c1	2.76	
Cc1ccc(C(=O)Nc2cc(N(C)CCO)cc(C(F)(F)F)c2)cc1C#Cc1cnc2cccnn12	14.4	
Cc1ccc(-c2nc3cc(C(F)(F)F)ccc3[nH]2)cc1C#Cc1cnc2cccnn12	5.8	
Cc1ccc(C(=O)Nc2cc(C(F)(F)F)ccc2NCCN2CCCC2)cc1C#Cc1cnc2ccccn12	24.3	
Cc1ccc(C(=O)Nc2cc(-n3cnc(CN(C)C)c3)cc(C(F)(F)F)c2)cc1C#Cc1cnc2cccnn12	3.84	
Cc1ccc(C(=O)Nc2ccc(CN3CCCC3)c(C(F)(F)F)c2)cc1C#Cc1cnc2ccccn12	60.2	
Cc1cc(C#Cc2cnc3cccnn23)cc(C(=O)Nc2cccc(C(F)(F)F)c2)c1	2940	
Cc1ccc(C(=O)Nc2ccc(CN3CCN(C)CC3)c(C(F)(F)F)c2)cc1C#Cc1cnc2cccnn12 [Ponatinib, 3-(Imidazo[1,2-b]pyridazin-3-ylethynyl)-4-methyl-N-(4-((4-methylpiperazin-1-yl)methyl)-3-(trifluoromethyl)phenyl)benzamide]		GI50 [2]: 372 nM; GI50 [3]: 354 nM; GI50 [4]: 85.6 nM; GI50 [5]: 767 nM; GI50 [6]: 107 nM; GI50 [7]: 88.5 nM; MEK or ERK1/2 phosphorylation [8]: inhibit; MEK or ERK1/2 phosphorylation [9]: inhibit; MEK or ERK1/2 phosphorylation [10]: inhibit
CC(=O)Nc1cccn2c(C#Cc3cc(NC(=O)Nc4cc(C(F)(F)F)ccn4)ccc3C)cnc12	5.09	
Cc1ccc(C(=O)Nc2ccc(CN3CCOCC3)c(C(F)(F)F)c2)cc1C#Cc1cnc2cnccn12	5.43	
CN1CCN(Cc2ccc(NC(=O)c3cncc(C#Cc4cnc5cccnn45)c3)cc2Cl)CC1	25.6	
CN1CCN(Cc2ccc(NC(=O)c3cccc(C#Cc4cnc5cnccn45)c3)cc2Cl)CC1	3.96	
Cc1ccc(C(=O)Nc2ccc(C(F)(F)F)cc2)cc1C#Cc1cnc2cccnn12	4.39	
Cc1ccc(C(=O)Nc2ccc(CC(=N)N)c(C(F)(F)F)c2)cc1C#Cc1cnc2cccnn12	3.91	
Cc1ccc(C(=O)Nc2cc(CN3CCOCC3)cc(C(F)(F)F)c2)cc1C#Cc1cnc2ccccn12	83.1	
